Reference: US11000033B2, “Ketone or oxime compound, and herbicide” (NISSAN CHEMICAL CORPORATION, priority 2014, dated 2021)

Assays:
Assay type in all cases: in vivo
[1] = test system: Echinochloa oryzacola Vasing.; test: Test Example 1: herbicidal activity, application before weed generation in submerged conditions (symbol A); settings: application herbicide amount 320 g/ha
Summary of the method: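 In a flooded pot test with alluvial soil, the emulsion-formulated compound was diluted with water to a predetermined amount and applied to the floodwater immediately on the sowing day. Pots were held in a greenhouse at 25–30 °C for 3 weeks before each weed was rated.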

[2] = test system: Echinochloa crus-galli var. crus-galli; test: Test Example 3: herbicidal effect by foliage application, Wagner pot (symbol H); settings: application herbicide amount 320 g/ha
Summary of the method: (§1)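 Foliar spray of a water-diluted emulsion at a predetermined herbicide amount, applied to 14-day-old plants. Seedlings were raised in flooded alluvial soil (0.1–0.5 cm water) at 25–30 °C in a greenhouse. Injury was rated after 3 weeks against fixed criteria.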

Leptochloa chinensis = test: Test Example 3: herbicidal effect by foliage application, Wagner pot (symbol D); settings: application herbicide amount 320 g/ha
Summary of the method: as §1

Digitaria ciliaris [3] = test: Test Example 4: herbicidal effect by soil treatment (symbol F); settings: 320 g/ha
Summary of the method: (§2)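 Seeds were sown in sterilized diluvial soil, covered with about 1.5 cm of soil, and the soil surface was sprayed with a water-diluted emulsion of the compound at a predetermined rate. Plants grew in a greenhouse at 25° C. to 30° C.; effects were scored visually 3 weeks after application.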

Setaria viridis [4] = test: Test Example 4: herbicidal effect by soil treatment (symbol G); settings: 320 g/ha
Summary of the method: as §2

Avena fatua = test: Test Example 4: herbicidal effect by soil treatment (symbol I); settings: 320 g/ha
Summary of the method: as §2

Alopecurus myosuroides = test: Test Example 4: herbicidal effect by soil treatment (symbol J); settings: 320 g/ha
Summary of the method: as §2

Amaranthus retroflexus = test: Test Example 4: herbicidal effect by soil treatment (symbol N); settings: 320 g/ha
Summary of the method: as §2

Veronica persica = test: Test Example 4: herbicidal effect by soil treatment (symbol R); settings: 320 g/ha
Summary of the method: as §2

rapeseed = test: Test Example 4: effect on crop by soil treatment (symbol g); settings: 320 g/ha
Summary of the method: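 Soil-treatment setup: crop and weed seeds were spot-sown into sterilized diluvial soil, then buried beneath approximately 1.5 cm of it, and the boxes were housed in a 25–30° C. greenhouse.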

Digitaria ciliaris [5] = test: Test Example 5: herbicidal effect by foliage application, plastic box (symbol F); settings: 320 g/ha, 3 weeks after application
Summary of the method: (§3)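 Herbicide, formulated as an emulsion and diluted in water, is sprayed onto the aerial parts of 14-day seedlings. These were grown at 25° C. to 30° C. in sterilized diluvial soil; effects are graded after 3 weeks.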

Setaria viridis [6] = test: Test Example 5: herbicidal effect by foliage application, plastic box (symbol G); settings: 320 g/ha, 3 weeks after application
Summary of the method: as §3

Lolium multiflorum Lam. = test: Test Example 5: herbicidal effect by foliage application, plastic box (symbol K); settings: 320 g/ha, 3 weeks after application
Summary of the method: as §3

Apera spica-venti = test: Test Example 5: herbicidal effect by foliage application, plastic box (symbol L); settings: 320 g/ha, 3 weeks after application
Summary of the method: as §3

Abutilon theophrasti = test: Test Example 5: herbicidal effect by foliage application, plastic box (symbol M); settings: 320 g/ha, 3 weeks after application
Summary of the method: as §3

Chenopodium album = test: Test Example 5: herbicidal effect by foliage application, plastic box (symbol O); settings: 320 g/ha, 3 weeks after application
Summary of the method: as §3

Stellaria media = test: Test Example 5: herbicidal effect by foliage application, plastic box (symbol P); settings: 320 g/ha, 3 weeks after application
Summary of the method: as §3

Galium spurium = test: Test Example 5: herbicidal effect by foliage application, plastic box (symbol Q); settings: 320 g/ha, 3 weeks after application
Summary of the method: as §3

rice plant = test: Test Example 5: effect on crop by foliage application, plastic box (symbol b); settings: 320 g/ha, 3 weeks after application
Summary of the method: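 Greenhouse test at 25° C. to 30° C. Seeds of crops and weeds were spot-sown in boxes of sterilized diluvial soil under roughly 1.5 cm soil cover, then grown for foliage treatment.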

Row | SMILES | Herbicidal effect grade, A: Echinochloa oryzacola Vasing. [1] | herbicidal effect on H (Echinochloa crus-galli var. crus-galli), grade 0-5 [2] | herbicidal effect on D (Leptochloa chinensis), grade 0-5 (Leptochloa chinensis) | F: Digitaria ciliaris, herbicidal effect grade (Digitaria ciliaris [3]) | G: Setaria viridis, herbicidal effect grade (Setaria viridis [4]) | I: Avena fatua, herbicidal effect grade (Avena fatua) | J: Alopecurus myosuroides, herbicidal effect grade (Alopecurus myosuroides) | N: Amaranthus retroflexus, herbicidal effect grade (Amaranthus retroflexus) | R: Veronica persica, herbicidal effect grade (Veronica persica) | g: rapeseed, effect grade on crop (rapeseed) | F: Digitaria ciliaris, herbicidal effect grade (Digitaria ciliaris [5]) | G: Setaria viridis, herbicidal effect grade (Setaria viridis [6]) | K: Lolium multiflorum Lam., herbicidal effect grade (Lolium multiflorum Lam.) | L: Apera spica-venti, herbicidal effect grade (Apera spica-venti) | M: Abutilon theophrasti, herbicidal effect grade (Abutilon theophrasti) | O: Chenopodium album, herbicidal effect grade (Chenopodium album) | P: Stellaria media, herbicidal effect grade (Stellaria media) | Q: Galium spurium, herbicidal effect grade (Galium spurium) | b: directly sowed rice plant, effect on crop grade (rice plant) | F: Digitaria ciliaris, herbicidal effect (criteria 0-5) (Digitaria ciliaris [5]) | other results
1 | CON=C(C)CC1CC(OC(=O)c2ccc(S(C)(=O)=O)c(C(=O)OC)c2Cl)=C(c2c(C)cc(C)cc2C)C1=O (stereo not shown) [1-162] | 5 (Herbicidal ratio of 90% or more (almost completely withered)) | 5 (Herbicidal ratio of 90% or more (almost completely withered)) | 5 (Herbicidal ratio of 90% or more (almost completely withered)) | 5 (Herbicidal ratio of 90% or more (almost completely withered)) | 5 (Herbicidal ratio of 90% or more (almost completely withered)) | 3 (Herbicidal ratio of 40% or higher and lower than 70%) | 5 (Herbicidal ratio of 90% or more (almost completely withered)) | 4 (Herbicidal ratio of 70% or higher and lower than 90%) | 0 (Herbicidal ratio of 5% or lower (almost no effect)) | 4 (Herbicidal ratio of 70% or higher and lower than 90%) | 5 (Herbicidal ratio of 90% or more (almost completely withered)) | 5 (Herbicidal ratio of 90% or more (almost completely withered)) | 5 (Herbicidal ratio of 90% or more (almost completely withered)) | 5 (Herbicidal ratio of 90% or more (almost completely withered)) | 4 (Herbicidal ratio of 70% or higher and lower than 90%) | 4 (Herbicidal ratio of 70% or higher and lower than 90%) | 4 (Herbicidal ratio of 70% or higher and lower than 90%) | 4 (Herbicidal ratio of 70% or higher and lower than 90%) | 5 (Herbicidal ratio of 90% or more (almost completely withered)) |  | 
2 | CON=C(C)CC1CC(OC(=O)c2ccccc2C(F)(F)F)=C(c2c(C)cc(C)cc2C)C1=O (stereo not shown) [1-154] | 5 (Herbicidal ratio of 90% or more (almost completely withered)) | 5 (Herbicidal ratio of 90% or more (almost completely withered)) | 5 (Herbicidal ratio of 90% or more (almost completely withered)) | 5 (Herbicidal ratio of 90% or more (almost completely withered)) | 5 (Herbicidal ratio of 90% or more (almost completely withered)) | 0 (Herbicidal ratio of 5% or lower (almost no effect)) | 5 (Herbicidal ratio of 90% or more (almost completely withered)) | 4 (Herbicidal ratio of 70% or higher and lower than 90%) | 0 (Herbicidal ratio of 5% or lower (almost no effect)) | 4 (Herbicidal ratio of 70% or higher and lower than 90%) |  |  |  |  |  |  |  |  |  | 5 (Herbicidal ratio of 90% or more (almost completely withered)) | G: Setaria viridis, herbicidal effect (criteria 0-5) (Setaria viridis [6]): 5 (Herbicidal ratio of 90% or more (almost completely withered)); K: Lolium multiflorum Lam., herbicidal effect (criteria 0-5) (Lolium multiflorum Lam.): 5 (Herbicidal ratio of 90% or more (almost completely withered)); L: Apera spica-venti, herbicidal effect (criteria 0-5) (Apera spica-venti): 5 (Herbicidal ratio of 90% or more (almost completely withered)); M: Abutilon theophrasti, herbicidal effect (criteria 0-5) (Abutilon theophrasti): 4 (Herbicidal ratio of 70% or higher and lower than 90%); O: Chenopodium album, herbicidal effect (criteria 0-5) (Chenopodium album): 1 (Herbicidal ratio of 5% or higher and lower than 20%); P: Stellaria media, herbicidal effect (criteria 0-5) (Stellaria media): 2 (Herbicidal ratio of 20% or higher and lower than 40%); Q: Galium spurium, herbicidal effect (criteria 0-5) (Galium spurium): 3 (Herbicidal ratio of 40% or higher and lower than 70%); b: directly sowed rice plant, effect on crop (criteria 0-5) (rice plant): 5 (Herbicidal ratio of 90% or more (almost completely withered))
3 | CC(=O)C(C(C)=O)C1CC(O)=C(c2c(C)cc(C)cc2C)C1=O (stereo not shown) [2-002] | 0 (Herbicidal ratio of 5% or lower (almost no effect)) | 0 (Herbicidal ratio of 5% or lower (almost no effect)) | 0 (Herbicidal ratio of 5% or lower (almost no effect)) | 0 (Herbicidal ratio of 5% or lower (almost no effect)) | 0 (Herbicidal ratio of 5% or lower (almost no effect)) | 0 (Herbicidal ratio of 5% or lower (almost no effect)) | 0 (Herbicidal ratio of 5% or lower (almost no effect)) | 0 (Herbicidal ratio of 5% or lower (almost no effect)) | 0 (Herbicidal ratio of 5% or lower (almost no effect)) | 0 (Herbicidal ratio of 5% or lower (almost no effect)) | 4 (Herbicidal ratio of 70% or higher and lower than 90%) | 4 (Herbicidal ratio of 70% or higher and lower than 90%) | 5 (Herbicidal ratio of 90% or more (almost completely withered)) | 2 (Herbicidal ratio of 20% or higher and lower than 40%) | 0 (Herbicidal ratio of 5% or lower (almost no effect)) | 3 (Herbicidal ratio of 40% or higher and lower than 70%) | 2 (Herbicidal ratio of 20% or higher and lower than 40%) | 2 (Herbicidal ratio of 20% or higher and lower than 40%) | 4 (Herbicidal ratio of 70% or higher and lower than 90%) |  | 
4 | C=CCOC(=O)OC1=C(c2c(C)cc(C)cc2C)C(=O)C(CC(C)=NOC)C1 (stereo not shown) [1-146] | 5 (Herbicidal ratio of 90% or more (almost completely withered)) | 5 (Herbicidal ratio of 90% or more (almost completely withered)) | 5 (Herbicidal ratio of 90% or more (almost completely withered)) | 5 (Herbicidal ratio of 90% or more (almost completely withered)) | 5 (Herbicidal ratio of 90% or more (almost completely withered)) | 4 (Herbicidal ratio of 70% or higher and lower than 90%) | 5 (Herbicidal ratio of 90% or more (almost completely withered)) | 5 (Herbicidal ratio of 90% or more (almost completely withered)) | 5 (Herbicidal ratio of 90% or more (almost completely withered)) | 5 (Herbicidal ratio of 90% or more (almost completely withered)) |  |  |  |  |  |  |  |  |  | 5 (Herbicidal ratio of 90% or more (almost completely withered)) | G: Setaria viridis, herbicidal effect (criteria 0-5) (Setaria viridis [6]): 5 (Herbicidal ratio of 90% or more (almost completely withered)); K: Lolium multiflorum Lam., herbicidal effect (criteria 0-5) (Lolium multiflorum Lam.): 5 (Herbicidal ratio of 90% or more (almost completely withered)); L: Apera spica-venti, herbicidal effect (criteria 0-5) (Apera spica-venti): 5 (Herbicidal ratio of 90% or more (almost completely withered)); M: Abutilon theophrasti, herbicidal effect (criteria 0-5) (Abutilon theophrasti): 5 (Herbicidal ratio of 90% or more (almost completely withered)); O: Chenopodium album, herbicidal effect (criteria 0-5) (Chenopodium album): 2 (Herbicidal ratio of 20% or higher and lower than 40%); P: Stellaria media, herbicidal effect (criteria 0-5) (Stellaria media): 3 (Herbicidal ratio of 40% or higher and lower than 70%); Q: Galium spurium, herbicidal effect (criteria 0-5) (Galium spurium): 3 (Herbicidal ratio of 40% or higher and lower than 70%); b: directly sowed rice plant, effect on crop (criteria 0-5) (rice plant): 5 (Herbicidal ratio of 90% or more (almost completely withered))
